Reference: patent US11213527B2, “Inhibitory effect of low molecular weight compound on cancer and fibrosis” (NATIONAL UNIVERSITY CORPORATION TOTTORI UNIVERSITY, priority 2014, dated 2022)

Tests used:
[1] = test system: CD44-positive HuH7 cells (cancer stem cells); test: Inhibitory effect on cancer stem cells (FACS analysis, CD44); type: cell-based, human; settings: IC-2 50 μM, PN3-13 10 μM, 5-FU 0.5 μM, two days, vs DMSO control
Experimental: The following protocol was used to investigate an inhibitory effect of each low-molecular-weight compound on cancer stem cells. CD44, a cancer stem cell marker, was used as an index. HuH7 cells at 70 to 90% confluency were collected and 1.5×10^6 cells were seeded on a 10-cm dish (TPP Techno Plastic Products AG, Trasadingen, Switzerland). After 15 hours, the cells were treated with each of Hexachlorophene (15 μM), ICG-001 (15 μM), PKF118-310 (5 μM), IC-2 (50 μM), PN3-13 (10 μM), and 5-FU (0.5 μM) and were incubated at 37° C. DMSO, which was a solvent for each of the low-molecular-weight compounds and anti-cancer drugs, was used as a control. Two days after the chemical treatment, the cells on a dish were collected. Next, the cells were centrifuged at 1000 rpm for 5 min at 4° C. to remove a supernatant. Then, the cells were washed twice with 1 mL of 0.5% FBS/2 mM EDTA/PBS. After that, the cells were suspended in 500 μL of 5% BSA/0.5% FBS/2 mM EDTA/PBS and blocked once for 15 min at 4° C.
Next, 5 μL of an anti-human CD44 monoclonal antibody (Cell Signaling Technology Inc., Danvers, Mass., USA) was added. Then, the cells were suspended and a primary antibody reaction was performed in a dark room for 10 min at 4° C. After that, the cells were washed 3 times with 1 mL of PBS. […] Note that a significant difference was evaluated by using Student's t-test (two-tailed). […]

[2] = test system: CD44-positive HuH7 cells; test: Liver cancer model mice, CD44-positive HuH7 cells subcutaneously transplanted; type: in vivo; settings: for change in the body weight: 50 mg/kg IC-2 or 30 mg/kg 5-FU intraperitoneally every 3 days
Experimental: CD44-positive HuH7 cells were subcutaneously transplanted into mice. The mice were then divided into 3 groups (DMSO group: 5 mice; 5-FU group: 4 mice; and IC-2 group: 4 mice). Subsequently, 30 mg/kg of 5-FU, 50 mg/kg of IC-2, or DMSO (as a control), which was a solvent for each chemical, was intraperitoneally administered every 3 days. The body weight and the tumor length and width of each mouse were measured every 3 days. The tumor volume was calculated by using the following equation: Tumor volume=Length×(Width)^2×0.5. The volume at Day 0 was used to normalize each tumor volume, and then a graph was created. To sufficiently evaluate an effect of 5-FU, the dosage that was usually […] in research articles was doubled to set a 5-FU dose. The IC-2 concentration corresponding to a concentration at which a Wnt/β-catenin signal was inhibited in vitro was calculated. Then, the concentration was doubled to set an IC-2 dose.

[3] = test system: liver cancer cell line HLF (CD90); test: FACS analysis of CD90-expressing cells; type: cell-based, human; settings: 0.5 μM 5-FU, 50 μM IC-2, two days, DMSO 21.8%
Experimental: A liver cancer cell line HLF was seeded at 1.5×10^6 cells/dish on 10-cm dishes. Next, the cells were cultured at 37° C. and 5% CO2. After 24 hours, 1% DSMO, 0.5 μM 5-FU, or 50 μM IC-2 was added thereto and the cells were further incubated. Two days after the chemical treatment, the cells were harvested. Then, the cells were blocked in 0.5% BSA/0.5% FBS/2 mM EDTA/PBS. Subsequently, 5 μL of an APC-labeled mouse anti-human CD90 antibody (BD Biosciences, San Jose, Calif., USA) was added to 500 μL of a cell suspension and the resulting mixture was resuspended and incubated at 4° C. for 10 min to carry out a primary antibody reaction. After the antibody reaction, the cells were washed twice with 0.5% FBS/2 mM EDTA/PBS and once with 5% FBS/2 mM EDTA/DMEM. Next, the cells were resuspended in 500 μL of 5% FBS/2 mM EDTA/PBS. Then, 1 μg/mL of propidium iodide was added thereto. After that, the mixture was made to pass through a tube with a 40-μm mesh filter. Finally, a Beckman Coulter-MoFlo XDP was used to analyze CD90-expressing cells. […] The concentration of IC-2 was determined on the basis of a concentration at which a Wnt/β-catenin signal was inhibited.

[4] = test system: CD44^high DLD-1 cells; test: Inhibitory effect on cancer stem cells in colon cancer (CD44 FACS); type: cell-based, human; settings: IC-2 50 μM, 5-FU 0.5, 5 μM, 48 hours, vs control
Experimental: First, 1×10^6 DLD-1 cells were seeded on a 10-cm dish. After 24 hours, the cells were treated with 5-FU (0.5, 5 μM) or IC-2 (50 μM). After additional 48 hours, the cells were harvested. An anti-human CD44 antibody (Abcam Ltd., Cambridge, UK) was used as a primary antibody and an Alexa 488-labeled goat anti-mouse IgG antibody (Life Technologies Corp., Carlsbad, Calif., USA) was then used. After that, analysis was performed by using a MoFlo XDP (Beckman Coulter Inc., Fullerton, Calif.).

[5] = test system: CD44-expressing HSC2 cells; test: Inhibitory effect on cancer stem cells in squamous cell carcinoma (CD44 FACS); type: cell-based, human; settings: 5-FU 0.5 μM, IC-2 25 μM, PN-3-13 7.5 μM, HC-1 50 μM, 48 hours, no treatment 83.9%
Experimental: First, 5×10^5 of HSC2 cells were plated on a 10-cm dish. After 24 hours, the cells were treated with 5-FU (0.5 μM), IC-2 (25 μM), PN-3-13 (7.5 μM), or HC-1 (50 μM). Also, some of the cells were prepared without low-molecular-weight compound treatment (0 μM). After additional 48 hours, the cells were harvested. An anti-human CD44 antibody (Abcam Ltd., Cambridge, UK) was used as a primary antibody and an Alexa 488-labeled goat anti-mouse IgG antibody (Life Technologies Corp., Carlsbad, Calif., USA) was then used. After that, analysis was performed by using a cell sorter, BD bioscience FACS Aria (BD Biosciences, CA, USA). Note that the concentration of each low-molecular-weight compound was determined on the basis of the IC50 concentration at 48 hours in a WST assay.

## O=c1[nH]cc(F)c(=O)[nH]1 [5-FU, reference compound]
[1]
  number of cancer stem cells (CD44-positive cells): rather increased the number of cancer stem cells
[2]
  change in the body weight: no observable change in the body weight
[3]
  proportion of the CD90-expressing cells: 24.1%
[4]
  proportion of CD44^high cells: rather increased the proportion
[5]
  proportion of CD44-expressing cells: 83.3%

## O=C1[C@H](Cc2ccccc2)N2C(=O)CCN(C(=O)NCc3ccccc3)[C@H]2CN1Cc1cccc2ccccc12 [IC-2]
[1]
  number of cancer stem cells (CD44-positive cells): significantly less than that of the control
[2]
  change in the body weight: no observable change in the body weight
[2]; 50 mg/kg IC-2 vs 30 mg/kg 5-FU intraperitoneally every 3 days
  therapeutic effect of treating a malignant tumor (tumor volume): significantly higher therapeutic effect of treating a malignant tumor than that of 5-FU
[3]
  proportion of the CD90-expressing cells: 13.5%
[4]
  proportion of CD44^high cells: significantly decreased the proportion of CD44^high cells
[5]
  proportion of CD44-expressing cells: 71.4%
